Assay results published in patent publication US8629144B2, “Polymorphic and hydrate forms, salts and process for preparing 6-{difluoro[6-(1-methyl-1H-pyrazol-4-yl)[1,2,4]triazolo[4,3-b]pyridazin-3-yl]methyl}quinoline” (Janssen Pharmaceutica NV, priority 2007, dated 2014).
Converted amounts (≈) assume the structure as drawn. Where two headings read alike, the source gives them in different places.

Assays:
Assay type in all cases: physicochemical
[1] = Thermal conversions in DSC oven (XRPD)
Procedure: Form III or hydrate form were thermally treated in a DSC oven (heating rate 10° C./min) up to selected temperatures (isotherm for 1 min) using an open sample pan. The selected temperatures are for Form III: 110° C. and 170° C.; and for hydrate form: 70° C., 110° C. and 170° C. The polymorphic composition of the obtained fractions was measured by XRPD. Table 12 summarises XRPD patterns in DSC treated Form III. Table 13 summarises XRPD patterns in DSC treated hydrate

[2] = Aqueous solubility of Forms I, III and hydrate at different pH
Procedure: Solubility of polymorph Forms I and III and the hydrate form of the compound of formula (I) was tested in aqueous conditions at different pH values.

[3] = Stability of the hydrate form in aqueous suspension (XRPD, SEM); settings: aqueous suspension 16 mg/ml
Procedure: Aqueous suspension of the compound of formula (I) 16 mg/ml was stored at about 4° C. up to 9 days. Samples were taken after 1, 2 and 9 days of storage. The suspensions were spread over a paper filter and dried at room temperature for 2 hours. The obtained materials were analysed by XRPD.
Moreover, the hydrate remained stable in the aqueous medium for at least 9 days (XRD not substantially changed).

[4] = Crystallographic stability of Form I on storage (TGA, DSC, XRPD, IR); parameters: key to IR: ±Ref: contain some small extra signals
Procedure: The stability of the crystal structure of polymorph Form I of the compound (I) was studied after storage of the compound in open conditions for a period of six weeks at room temperature (RT) under <5%, 56% and 75% relative humidity (RH) at 50° C., and at 40° C. and 75% RH.
The samples were analysed by TGA, DSC, XRPD and IR spectroscopy.

[5] = Slurry conversion on mixtures of Form III and Form I (XRPD); parameters: key to Polymorphic composition (XRPD) after slurry: Form I; *: low amount of product; settings: for Polymorphic composition (XRPD) after slurry: overnight
Procedure: 30 mg of mixture of Form III and Form I and 0.25 ml solvent (2-propanol; or ethanol/water (8/2, v/v)) were placed in a vial. For each solvent, 2 vials were prepared and stored each at different temperatures (RT, 70° C.) overnight. After storage, the slurry was spread on a paper filter, the solid fractions were collected and dried 2 hours at RT. The polymorphic composition was measured using XRPD.

[6] = Adsorption and desorption of water at 25° C. (Form I)
Procedure: Adsorption and desorption of water at 25° C. at different conditions of relative humidity was investigated on about 10 mg Form I of compound of formula (I), by registering the weight change as a function of relative humidity.
During an initial drying step a weight loss of 0.05% was registered.

[7] = Chemical stability of Form I on storage (HPLC, visual inspection)
Procedure: Chemical stability of Form I was tested in different open storage conditions for periods of 1, 4 and 8 weeks: 40° C./75% RH; 50° C.; RT/<5% RH; RT/56% RH; RT/75% RH and 0.3da ICH high intensity light. The compound was analysed after storage by HPLC and by visual inspection.

[8] = six weeks open storage, 40° C./75% RH
[9] = six weeks open storage, RT/56% RH
[10] = six weeks open storage, RT/75% RH
[11] = six weeks open storage, RT/<5% RH

For Cn1cc(-c2ccc3nnc(C(F)(F)c4ccc5ncccc5c4)n3n2)cn1 [hydrate, 6-{difluoro[6-(1-methyl-1H-pyrazol-4-yl)[1,2,4]triazolo[4,3-b]pyridazin-3-yl]methyl}quinoline], the XRPD measured composition ([1]; DSC treated hydrate, up to 70° C.) was “hydrate + Form III”, the XRPD measured composition ([1]; DSC treated hydrate, up to 110° C.) was “Form III” and the XRPD measured composition ([1]; DSC treated hydrate, up to 170° C.) was “mainly Form I”. For the same compound, the XRPD measured composition ([1]; starting hydrate) was “hydrate”, the Solubility ([2]; 0.01 HCl) was 56 µg/mL and the Solubility ([2]; 0.1 HCl) was 810 µg/mL. It also gave a Solubility ([2]; pH2) of 65 µg/mL, a Solubility ([2]; pH4) of 2 µg/mL and a Solubility ([2]; pH6) of 1 µg/mL. The Solubility ([2]; pH8) was 1 µg/mL, the Solubility ([2]; pH10) was 1 µg/mL and the “Time hydrate remained stable in the aqueous medium (XRD not substantially changed)” value ([3]; about 4° C.) was “at least 9 days”.

For Cn1cc(-c2ccc3nnc(C(F)(F)c4ccc5ncccc5c4)n3n2)cn1 [Form I, 6-{difluoro[6-(1-methyl-1H-pyrazol-4-yl)[1,2,4]triazolo[4,3-b]pyridazin-3-yl]methyl}quinoline], the “DSC Max” value ([4]; 0 days) was 201.0 °C, the “DSC ΔH” value ([4]; 0 days) was 101 J/g and the IR ([4]; 0 days) was “Cryst., Ref”. The TGA <100° C. ([4]; 0 days) was 0.12%, the TGA <240° C. ([4]; 0 days) was 0.36% and the XRD ([4]; 0 days) was “Cryst., Ref”. For the same compound, the Crystallographic stability ([4]; after storage under the different conditions) was “crystallographically stable”, the “DSC Max” value [4, 8] was 200.5 °C and the “DSC ΔH” value [4, 8] was 119 J/g. For the same compound, the IR [4, 8] was “~Ref (identical with Form I reference)”, the TGA <100° C. [4, 8] was 0.33% and the TGA <240° C. [4, 8] was 0.48%. For the same compound, the XRD [4, 8] was “~Ref (identical with Form I reference)”, the IR ([4]; six weeks open storage, 50° C.) was “~Ref (identical with Form I reference)” and the TGA <100° C. ([4]; six weeks open storage, 50° C.) was 0.31%. The TGA <240° C. ([4]; six weeks open storage, 50° C.) was 0.57%, the XRD ([4]; six weeks open storage, 50° C.) was “~Ref (identical with Form I reference)” and the “DSC Max” value [4, 9] was 200.4 °C. The “DSC ΔH” value [4, 9] was 120 J/g, the IR [4, 9] was “±Ref” and the TGA <100° C. [4, 9] was 0.58%. The TGA <240° C. [4, 9] was 0.8%, the XRD [4, 9] was “~Ref (identical with Form I reference)” and the “DSC Max” value [4, 10] was 200.1 °C. For the same compound, the “DSC ΔH” value [4, 10] was 121 J/g, the IR [4, 10] was “±Ref” and the TGA <100° C. [4, 10] was 0.25%. For the same compound, the TGA <240° C. [4, 10] was 0.57%, the XRD [4, 10] was “~Ref (identical with Form I reference)” and the “DSC Max” value [4, 11] was 200.1 °C. For the same compound, the “DSC ΔH” value [4, 11] was 124 J/g, the IR [4, 11] was “~Ref (identical with Form I reference)” and the TGA <100° C. [4, 11] was 0.74%. For the same compound, the TGA <240° C. [4, 11] was 0.75%, the XRD [4, 11] was “~Ref (identical with Form I reference)” and the Relative polymorph stability ([5]; from RT up to 70° C.) was “most stable polymorph”. The Solubility ([2]; aqueous medium, simulated gastric fluid, thermodynamic from solid, 0.01 HCl, read-out: Solubility) was 100 µg/mL (≈ 265 µM), the Solubility ([2]; aqueous medium, simulated gastric fluid, thermodynamic from solid, 0.1 HCl, read-out: Solubility) was 1300 µg/mL (≈ 3450 µM) and the Solubility ([2]; pH2) was 430 µg/mL (≈ 1140 µM). For the same compound, the Solubility ([2]; pH4) was 5 µg/mL (≈ 13.3 µM), the Solubility ([2]; pH6) was 3 µg/mL (≈ 7.95 µM) and the Solubility ([2]; pH8) was 4 µg/mL (≈ 10.6 µM). For the same compound, the Solubility ([2]; pH10) was 3 µg/mL (≈ 7.95 µM), the “Weight loss during initial drying step” value ([6]; about 10 mg) was 0.05% and the “Water adsorbed by dry product” value ([6]; depending on the atmospheric humidity) was “up to 0.5%”. For the same compound, the Hygroscopic behaviour ([6]; different relative humidity) was “no hygroscopic behaviour”, the “HPLC Sum of impurities” value ([7]; 0.3da ICH light, 1 w) was 0.55 w/w % and the Appearance ([7]; 0.3da ICH light, 1 week) was “slightly yellow”. The “HPLC Sum of impurities” value ([7]; 40° C./75% RH, 1 w) was 0.51 w/w %, the Appearance ([7]; 40° C./75% RH, 1 week) was “slightly yellow” and the “HPLC Sum of impurities” value ([7]; 40° C./75% RH, 4 w) was 0.66 w/w %. The Appearance ([7]; 40° C./75% RH, 4 weeks) was “slightly yellow”, the “HPLC Sum of impurities” value ([7]; 40° C./75% RH, 8 w) was 0.54 w/w % and the Appearance ([7]; 40° C./75% RH, 8 weeks) was “slightly yellow”. For the same compound, the “HPLC Sum of impurities” value ([7]; 50° C., 1 w) was 0.56 w/w %, the Appearance ([7]; 50° C., 1 week) was “slightly yellow” and the “HPLC Sum of impurities” value ([7]; 50° C., 4 w) was 0.59 w/w %. The Appearance ([7]; 50° C., 4 weeks) was “slightly yellow”, the “HPLC Sum of impurities” value ([7]; 50° C., 8 w) was 0.54 w/w % and the Appearance ([7]; 50° C., 8 weeks) was “slightly yellow”. The “HPLC Sum of impurities” value ([7]; RT/56% RH, 4 w) was 0.53 w/w %, the Appearance ([7]; RT/56% RH, 4 weeks) was “slightly yellow” and the “HPLC Sum of impurities” value ([7]; RT/56% RH, 8 w) was 0.53 w/w %. For the same compound, the Appearance ([7]; RT/56% RH, 8 weeks) was “slightly yellow”, the “HPLC Sum of impurities” value ([7]; RT/75% RH, 4 w) was 0.53 w/w % and the Appearance ([7]; RT/75% RH, 4 weeks) was “slightly yellow”. For the same compound, the “HPLC Sum of impurities” value ([7]; RT/75% RH, 8 w) was 0.77 w/w %, the Appearance ([7]; RT/75% RH, 8 weeks) was “slightly yellow” and the “HPLC Sum of impurities” value ([7]; RT/<5% RH, 4 w) was 0.62 w/w %. For the same compound, the Appearance ([7]; RT/<5% RH, 4 weeks) was “slightly yellow”, the “HPLC Sum of impurities” value ([7]; RT/<5% RH, 8 w) was 0.53 w/w % and the Appearance ([7]; RT/<5% RH, 8 weeks) was “slightly yellow”. The “HPLC Sum of impurities” value ([7]; Reference, 1 w) was 0.54 w/w %, the Appearance ([7]; Reference, 1 week) was “slightly yellow” and the Chemical stability ([7]; all investigated conditions) was “chemically stable”.

For Cn1cc(-c2ccc3nnc(C(F)(F)c4ccc5ncccc5c4)n3n2)cn1 [mixture of Form III and Form I], the “Polymorphic composition (XRPD) after slurry” value (from here on “Polymorphic composition (XRPD)”) ([5]; 2-propanol, 70° C.) was “I”, the “Polymorphic composition (XRPD)” value ([5]; 2-propanol, RT) was “I” and the “Polymorphic composition (XRPD)” value ([5]; ethanol/water (8/2, v/v), 70° C., low amount of product) was “I*”. The “Polymorphic composition (XRPD)” value ([5]; ethanol/water (8/2, v/v), RT) was “I” and the “XRD patterns of the stored suspensions” value ([3]; 4° C., 1 day, 2 days and 9 days) was “compatible with those of the hydrate form”.
